Reference: publication PMC11857971, “^11C-Labeling of a Flavanone Extracted from a South American Native Species for Evaluation of Its Interaction with GSK-3β” (Molecules, 2025)

Molecular target: T1, GSK-3β (Homo sapiens, UniProt P49841)
T1 construct: gene GSK3B
Experiment: Kinase-Glo luminescent kinase assay, recombinant human GSK-3β, dose-response
Format: biochemical

T1 sequence (P49841 whole entry): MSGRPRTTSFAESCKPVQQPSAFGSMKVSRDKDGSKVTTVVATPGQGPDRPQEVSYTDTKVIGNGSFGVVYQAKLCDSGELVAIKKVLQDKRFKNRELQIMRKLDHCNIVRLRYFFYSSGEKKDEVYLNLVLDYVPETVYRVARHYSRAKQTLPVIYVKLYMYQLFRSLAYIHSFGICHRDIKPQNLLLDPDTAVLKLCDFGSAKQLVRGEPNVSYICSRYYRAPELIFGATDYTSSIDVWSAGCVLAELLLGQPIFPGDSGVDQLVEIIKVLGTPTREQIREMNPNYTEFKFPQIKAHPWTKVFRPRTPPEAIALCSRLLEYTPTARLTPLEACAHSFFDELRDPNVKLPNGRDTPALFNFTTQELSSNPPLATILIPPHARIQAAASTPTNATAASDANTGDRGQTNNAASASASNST

Row | IC50 [µM] | SMILES
1 | 16.1 ± 0.6 | COc1cc(O)c2c(c1CC=C(C)C)O[C@H](c1ccccc1)CC2=O [FLA, (S)-5-hidroxy-7-methoxy-8-(3-methylbut-2-en-1-yl)-2-phenylcroman-4-one]
2 | 44.8 ± 4 | CC(C)=CCc1c(O)cc(O)c2c1O[C@H](c1ccccc1)CC2=O [glabranin, (S)-5,7-dihydroxy-8-(3-methylbut-2-en-1-yl)-2-phenylchroman-4-one]
